Holding throughout (assay): NCI-60 cell line screen, 48 h
For test [1], the system named is ACHN renal.
In test [2] the test system is HCC-2998 colon.
For test [3], the system named is HOP-92 NSCLC.
Test [4] concerns HT29 colon.
In test [5] the test system is NCI-H23 lung.
Test [6] concerns NCI-H460 lung.
For test [7], the system named is OVCAR-4 ovarian.
Test [8] has as its system SK-OV-3 ovarian.
In test [9] the test system is UO-31 renal.
The subject of test [10] is HCT-116 colon.

Here are results for 9 molecules from PubChem BioAssay (NCI).

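Grown in 96-well plates, cells were treated for 48 hours with each compound at five concentrations. Insufficient inhibition: endpoint recorded as highest concentration tested. At the GI50, growth is halved. TGI denotes the concentration required for complete inhibition of growth.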

`COc1ccc2c(c1)N1CCc3cc(OC)c(OC)cc3C1C2` (configuration not stated): the TGI in [1], in [2], in [3], in test [4], in [5] and in test [6] was > 100 µM in each case. In addition, the TGI in [7], in test [8] and in test [9] was > 100 µM throughout.
As for `COc1cc(-c2cc3ncccc3c3nc(N)c4cccnc4c23)cc(OC)c1OC`, the GI50 in [1] is 0.769 µM; in [2] it was 1.66 µM; in test [3], 9.17 µM; in test [4] it was 0.0762 µM; in test [5], 1.28 µM; in test [6], 0.408 µM. Also, the results for the GI50 in test [7], in test [8] and in test [9] were 3.16 µM, 0.538 µM and 0.936 µM, respectively. Further, the TGI in test [1] is 19.1 µM; in [2] it was > 100 µM; in test [3], > 100 µM; in test [4], 15.5 µM; in [5], 51.2 µM; in [6] it was 16.8 µM. Further, the TGI in test [7] was > 100 µM; in test [8], 72.5 µM; in test [9] it was 59.8 µM.
As to `COc1cccc(-c2nc3sccn3c2-c2ccnc(NCCCNS(=O)(=O)c3cccc(F)c3)c2)c1`, the GI50 was 2.22 µM in test [1]; 5.12 µM in [2]; 2.83 µM in [10]; 1.52 µM in [3]; 3.01 µM in [4]; 2.12 µM in test [5]. In addition, the results for the GI50 in [6], in test [8] and in test [9] were 4.04 µM, 4.86 µM and 1.25 µM, respectively. Further, the TGI was 10.6 µM in test [1]; > 100 µM in test [2]; > 100 µM in test [10]; > 100 µM in [3]; 23.9 µM in test [4]; 7.29 µM in test [5]. Further, the TGI was > 100 µM in test [6], > 100 µM in [8] and 5.37 µM in [9].
As to `C=C(c1ccc2nc(NC(=O)OC)[nH]c2c1)c1cccs1`, the TGI was 7.47 µM in [1]; 0.86 µM in [2]; > 45.2 µM in test [10]; > 31 µM in test [3]; > 100 µM in [4]; > 100 µM in test [6]. In addition, the results for the TGI in test [7], in [8] and in test [9] were > 100 µM, > 45.1 µM and > 62.4 µM, respectively.
On to `C=C(C)C(=O)O[C@H]1C[C@@]23O[C@@H]2CCC(=C[C@H]2OC(=O)C(=C)[C@H]12)COC3O` (some centres not stated), for which the TGI was > 100 µM in test [1]; > 100 µM in [2]; 37.5 µM in test [10]; 53.6 µM in test [3]; > 100 µM in [4]; > 100 µM in test [5]. In addition, the TGI in test [6], in [7] and in [8] was > 100 µM each time.
Turning to `COc1ccc(S(=O)(=O)Nc2ccccc2C(=O)O)cc1`, the TGI in [1], in [2], in test [3], in [4], in [5] and in test [6] was > 100 µM throughout. Besides, the TGI in test [7], in test [8] and in test [9] was > 100 µM in each case.
For `COc1ccc2c(CN3CCCCC3CO)cc3cc(OC)c(OC)cc3c2c1` (configuration not stated), the TGI in test [1] worked out at 31.1 µM; in test [2], 21 µM; in test [10], 13.7 µM; in [3], 9.82 µM; in test [4] it was 11.4 µM; in [5] it was 16.9 µM. The results for the TGI in test [8] and in test [9] were 70.2 µM and 12.5 µM, respectively.
`COC(=O)/C=C1/CCC(C(=O)OC)N1` (configuration not stated): the TGI in test [1], in [2], in [10], in [3], in test [5] and in test [6] was > 100 µM throughout. Also, the TGI in [7], in test [8] and in test [9] was > 100 µM in each case.
With `COc1ccc2c(c1)C(=O)c1c-2n(CCCN=[N+]=[N-])c(=O)c2cc(OC)c(OC)cc12`, the GI50 in [1] was 10.2 µM; in test [2], 13.7 µM; in [10], 27.8 µM; in [3] it was 9.13 µM; in test [4] it was > 100 µM; in test [6] it was 7.99 µM. The values for the GI50 in test [7], in test [8] and in test [9] were > 100 µM, 41.6 µM and 44.3 µM, respectively. The TGI is 25.8 µM in [1]; > 100 µM in test [2]; > 100 µM in test [10]; 44.6 µM in test [3]; > 100 µM in test [4]; > 100 µM in test [6]. For the same molecule, the TGI in [7], in test [8] and in test [9] was > 100 µM throughout.
